Where two headings read alike, the source gives them in different places.
What was measured:
[1] = ref unpublished data owned by Sanofi, cited from earlier work
[2] = Study 1: safety assessment (TEAEs, laboratory tests, ECG); type: in vivo, human; conditions: for QTc interval - change from baseline Borderline: Incr. from B 30-60 ms / QTc interval - change from baseline Prolonged: Incr. from B > 60 ms / QTc interval Prolonged: > 450 ms (m); > 470 ms (f) / QTc interval ≥ 500 ms: TEAE period
Method: Follow-up visits were done on day 6, 8, 14 ± 2, 21 ± 2, 28 ± 2 (Study 1); and day 7, 14 ± 2, 21 ± 2, 28 ± 2 (Study 2). […] Parasitemia was determined microscopically by Giemsa stained thick blood smear by two trained microscopists blinded to each other. […] For Study 2 respiratory parameters (respiratory rate, peak flow, efficiency of cough) were also checked at baseline and 30 min after first dose on day 1, 2 and 3.
Treatment emergent adverse events (TEAEs) were defined as AEs that developed or worsened during the treatment period until day 6 following the end of study treatment.

[3] = tested on: P. falciparum laboratory and clinical isolates; set-up: method as in PMID 11847346, PMID 15492221; conditions: cited from earlier work
[4] = tested on: malaria mouse model; set-up: method as in PMID 11847346, PMID 15492221, PMID 12878525; conditions: cited from earlier work; for Curative 4-day dose: mouse model
[5] = after single IM administration of 36 mg, phase 1
[6] = Group 1A, one patient, three days after study medication
[7] = Group 1A: 1 day IM 0.18 mg/kg, adults, N=34
[8] = Group 1A: 1 day IM 0.18 mg/kg, adults
[9] = Group 1B: 3 days IM 0.18 mg/kg, adults, N=30
[10] = Group 1B: 3 days IM 0.18 mg/kg, adults
[11] = Group 1C: 1 day IV 0.14 mg/kg, adults, N=30
[12] = Group 1C: 1 day IV 0.14 mg/kg, adults
[13] = Group 1D: 3 days IM 0.18 mg/kg, children, N=19
[14] = Group 1D: 3 days IM 0.18 mg/kg, children

SMILES: Cc1c(CCO)sc[n+]1CCCCCCCCCCCC[n+]1csc(CCO)c1C [SAR97276A]
- Terminal half-life in plasma [1, 5]: 5.5 h
- Terminal half-life in whole blood [1, 5]: 73 h
- Participants with an AE of severe intensity (ophthalmologic problems, temporary decrease in visual acuity), considered drug related ([1]; multiple administrations of 18 mg twice daily IM, phase 1): one
- Participants with AEs of severe intensity (severe abdominal spasm) ([1]; multiple doses of 12.8 mg IV, phase 1): two
- Highest tolerated dose for twice daily IM administration for 3 days ([1]; phase 1): 18 mg
- Tolerability in three phase 1 clinical trials ([1]; single doses 0.2–12.8 mg IV, 3.2–36 mg IM): well tolerated
- ALT increase in the patient with cytolytic hepatitis [2, 6]: 4.5 × upper limit than normal (ULN)
- AST increase in the patient with cytolytic hepatitis [2, 6]: 11 × ULN
- Total bilirubin in the patient with cytolytic hepatitis [2, 6]: ≥ 1.5 × ULN
- Patients who did not complete study treatment [2, 7]: 0
- Patients with any TEAE [2, 7]: 18 (52.9%)
- TEAE: Arthralgia [2, 7]: 1 (2.9%)
- TEAE: Convulsion [2, 7]: 0
- TEAE: Cough [2, 7]: 2 (5.9%)
- TEAE: Cytolytic hepatitis [2, 7]: 1 (2.9%)
- TEAE: Dizziness [2, 7]: 1 (2.9%)
- TEAE: Eyelid pruritus [2, 7]: 0
- TEAE: Gastrointestinal disorders [2, 7]: 3 (8.8%)
- TEAE: General Disorders/Administration site disorders [2, 7]: 3 (8.8%)
- TEAE: Headache [2, 7]: 4 (11.8%)
- TEAE: Hypertension [2, 7]: 0
- TEAE: Malaria [2, 7]: 2 (5.9%)
- TEAE: Neck pain [2, 7]: 2 (5.9%)
- TEAE: Paraesthesia [2, 7]: 0
- TEAE: Pneumonia [2, 7]: 1 (2.9%)
- TEAE: Pruritus [2, 7]: 0
- TEAE: Rhinitis [2, 7]: 2 (5.9%)
- TEAE: Thrombocytopenia [2, 7]: 0
- TEAE: Urticaria [2, 7]: 1 (2.9%)
- TEAE: Vertigo [2, 7]: 2 (5.9%)
- QTc interval - change from baseline Borderline: Incr. from B 30-60 ms [2, 8]: 0/33
- QTc interval - change from baseline Prolonged: Incr. from B > 60 ms [2, 8]: 0/33
- QTc interval Prolonged: > 450 ms (m); > 470 ms (f) [2, 8]: 0/33
- QTc interval ≥ 500 ms [2, 8]: 0/33
- Further patients with an elevated AST (> 3 x ULN), apart from the SAE patient ([2]; Group 1A: adults, single IM dose): one
- Patients who did not complete study treatment [2, 9]: 0
- Patients with any TEAE [2, 9]: 18 (60%)
- Patients with any serious AE [2, 9]: 0
- TEAE: Bradycardia [2, 9]: 0
- TEAE: Convulsion [2, 9]: 0
- TEAE: Cough [2, 9]: 2 (6.7%)
- TEAE: Cytolytic hepatitis [2, 9]: 0
- TEAE: Dizziness [2, 9]: 1 (3.3%)
- TEAE: Eyelid pruritus [2, 9]: 0
- TEAE: Gastrointestinal disorders [2, 9]: 7 (23.3%)
- TEAE: General Disorders/Administration site disorders [2, 9]: 1 (3.3%)
- TEAE: Headache [2, 9]: 4 (13.3%)
- TEAE: Hypertension [2, 9]: 1 (3.3%)
- TEAE: Malaria [2, 9]: 0
- TEAE: Neck pain [2, 9]: 1 (3.3%)
- TEAE: Paraesthesia [2, 9]: 1 (3.3%)
- TEAE: Pneumonia [2, 9]: 0
- TEAE: Pruritus [2, 9]: 1 (3.3%)
- TEAE: Rhinitis [2, 9]: 0
- TEAE: Tachycardia [2, 9]: 1 (3.3%)
- TEAE: Thrombocytopenia [2, 9]: 0
- TEAE: Urticaria [2, 9]: 0
- TEAE: Vertigo [2, 9]: 2 (6.7%)
- QTc interval - change from baseline Borderline: Incr. from B 30-60 ms [2, 10]: 0/30
- QTc interval - change from baseline Prolonged: Incr. from B > 60 ms [2, 10]: 0/30
- QTc interval Prolonged: > 450 ms (m); > 470 ms (f) [2, 10]: 0/30
- QTc interval ≥ 500 ms [2, 10]: 0/30
- Patients who did not complete study treatment [2, 11]: 0
- Patients with any TEAE [2, 11]: 14 (46.7%)
- Patients with any serious AE [2, 11]: 0
- TEAE: Arthralgia [2, 11]: 1 (3.3%)
- TEAE: Bradycardia [2, 11]: 0
- TEAE: Convulsion [2, 11]: 0
- TEAE: Cough [2, 11]: 1 (3.3%)
- TEAE: Cytolytic hepatitis [2, 11]: 0
- TEAE: Dizziness [2, 11]: 2 (6.7%)
- TEAE: Eyelid pruritus [2, 11]: 0
- TEAE: Gastrointestinal disorders [2, 11]: 1 (3.3%)
- TEAE: General Disorders/Administration site disorders [2, 11]: 0
- TEAE: Headache [2, 11]: 3 (10%)
- TEAE: Hypertension [2, 11]: 0
- TEAE: Malaria [2, 11]: 0
- TEAE: Neck pain [2, 11]: 0
- TEAE: Paraesthesia [2, 11]: 0
- TEAE: Pneumonia [2, 11]: 0
- TEAE: Pruritus [2, 11]: 0
- TEAE: Rhinitis [2, 11]: 0
- TEAE: Tachycardia [2, 11]: 0
- TEAE: Thrombocytopenia [2, 11]: 0
- TEAE: Urticaria [2, 11]: 0
- TEAE: Vertigo [2, 11]: 0
- QTc interval - change from baseline Prolonged: Incr. from B > 60 ms [2, 12]: 0/30
- QTc interval Prolonged: > 450 ms (m); > 470 ms (f) [2, 12]: 0/30
- QTc interval ≥ 500 ms [2, 12]: 0/30
- Patients with any TEAE [2, 13]: 11 (57.9%)
- TEAE: Arthralgia [2, 13]: 0
- TEAE: Bradycardia [2, 13]: 0
- TEAE: Convulsion [2, 13]: 1 (5.3%)
- TEAE: Cough [2, 13]: 1 (5.3%)
- TEAE: Cytolytic hepatitis [2, 13]: 0
- TEAE: Dizziness [2, 13]: 0
- TEAE: Eyelid pruritus [2, 13]: 1 (5.3%)
- TEAE: Gastrointestinal disorders [2, 13]: 5 (26.3%)
- TEAE: General Disorders/Administration site disorders [2, 13]: 1 (5.3%)
- TEAE: Headache [2, 13]: 3 (15.8%)
- TEAE: Hypertension [2, 13]: 0
- TEAE: Malaria [2, 13]: 0
- TEAE: Neck pain [2, 13]: 0
- TEAE: Paraesthesia [2, 13]: 0
- TEAE: Pneumonia [2, 13]: 0
- TEAE: Pruritus [2, 13]: 0
- TEAE: Rhinitis [2, 13]: 0
- TEAE: Tachycardia [2, 13]: 0
- TEAE: Urticaria [2, 13]: 0
- TEAE: Vertigo [2, 13]: 0
- QTc interval - change from baseline Borderline: Incr. from B 30-60 ms [2, 14]: 0/18
- QTc interval - change from baseline Prolonged: Incr. from B > 60 ms [2, 14]: 0/18
- QTc interval Prolonged: > 450 ms (m); > 470 ms (f) [2, 14]: 0/18
- QTc interval ≥ 500 ms [2, 14]: 0/18
- Deaths ([2]; Study 1): No deaths
- ECG abnormalities, clinical significance ([2]; Study 1): No clinical significant abnormalities
- Ophthalmologic disorders possibly related to SAR97276A ([2]; Study 1): No ophthalmologic disorders
- Participants with alkaline phosphatase elevated (> 1.5 x ULN) ([2]; Study 1): 19
- SAEs regarded as related to SAR97276A by the investigators ([2]; Study 1): None
- Tolerability ([2]; Study 1): well tolerated
- Patients with a serious adverse event (SAE), total ([2]; Study 1, all groups): four
- Patients who experienced a TEAE, all cohorts ([2]; Study 1, out of 113 patients): 61 (54%)
- In vitro-activity against P. falciparum laboratory and clinical isolates [3]: powerful in vitro-activity
- Efficacy in malaria mouse model [4]: highly efficacious
- Curative 4-day dose ([4]; orally): 20 to 45 mg/kg/day
- Curative 4-day dose ([4]; parenterally): 1 mg/kg/day

Source: publication PMC5418711, “Safety and efficacy of the choline analogue SAR97276 for malaria treatment: results of two phase 2, open-label, multicenter trials in African patients” (Malaria Journal, 2017)
